Results reported in US12383534B2, “Methods for treating cancer” (REGENTS OF THE UNIVERSITY OF MINNESOTA, priority 2021, dated 2025).

Columns and labels:
[1] = test system: CIC-DUX4 target genes ETV1, 4, and 5; assay: RT-qPCR for CIC-DUX4 target genes in NCC-CDS-X1 cells; format: cell-based, human; conditions: NCC-CDS-X1, 24 hours, 0.03 and 0.3 μM
Protocol: RNA was extracted using an RNA extraction kit (Zymo) and cDNA was made using 0.5 μg total RNA with oligo-dT primer and Verso cDNA Synthesis Kit (Thermo Scientific) following the manufacturer's instructions. qPCRs were performed by using Premix Ex Taq (Probe qPCR, Takara) or SYBR-green. Gene expression levels were normalized to that of GAPDH and analyzed with 7500 System Software using the ACT method (Applied Biosystems). RNA-seq library preparation was done with 500 ng total RNA from NCC-CDS-X1 cells treated for 4 or 24 hours with iP300w (0.3 μM) using the Swift Rapid RNA Library Kit (SwiftBioscience). 36 base paired-end sequencing was performed on an Illumina NextSeq instrument at the University of Minnesota Genomics Center.
Next, the effect of the stereoisomers on the CIC-DUX4 target genes in cells cultured with the compounds for 24 hours was analyzed.

[2] = test system: NCC-CDS-X1 and Kitra-SRS cell cultures; assay: Morphology of monolayer CDS cell cultures; format: cell-based, human; conditions: both CDS cell lines
Protocol: To evaluate the consequences of iP300w treatment of CDS cells, its effects on both monolayer cultures as well as 3D spheres was determined in both CDS cell lines. Inhibition of proliferation was morphologically apparent as early as 24 hours after iP300w treatment and progressed with time (FIG. 2A). Using the cell viability assay, it was determined that 0.003 μM was the lowest effective concentration on day 2 in both lines (FIG. 2B).

[3] = test system: global H3K18 and H3K27 acetylation (p300/CBP); assay: Western blot for acetylated H3K18 and H3K27 in cell lines overexpressing CIC-DUX4; format: cell-based, mouse and human; conditions: all analyzed CIC-DUX4 overexpressing cell lines, 18 hours
Protocol: (§1) For western blot analyses, cells were lysed with RIPA buffer supplemented with protease inhibitor cocktail (Complete, Roche), and proteins were separated on 10% SDS-PAGE gels, then transferred to PVDF membranes. Antibodies were diluted in 5% skim milk in TBST and incubated overnight at 4° C. or 1 hour at RT. An appropriate secondary HRP conjugated antibody was incubated for 1 hour at RT. Membranes were then washed with TBST, and signal was visualized using Pierce ECL western blotting substrate (Thermo Scientific). For immunofluorescence, cells cultured in 96 well plates were fixed in 4% PFA for 10 min., washed twice with PBS, permeabilized with 0.3% Triton X for 30 min, and blocked with 3% BSA for 1 hour at R/T. Primary antibodies were diluted in 3% BSA and incubated o/n at 4° C. An appropriate conjugated secondary antibody was applied for 60 min at RT. Nuclei were visualized using DAPI (1:5000, Sigma). […]

LCHN-Myoblast = assay: ATP assay on LCHN-Myoblast; format: cell-based, human; conditions: after 3 days of treatment (FIG. 10C)
Protocol: Basal media were purchased from HyClone, fetal bovine serum (FBS) was from PeakSerum (Ps-FB3, lot 293Q16), and Glutamax (Glu) and Penicillin/Streptomycin (P/S) were from GIBCO. NCC-CDS-X1 (CIC-DUX4 sarcoma cell line, a generous gift from Tadashi Kondo) cell line was cultured in RPMI with 10% FBS, Glu and P/S, Kitra-SRS (CIC-DUX4 sarcoma cell line, a generous gift from Hidetatsu Otani), 3T3, 293T and C2C12 cell lines were cultured in DMEM/10% FBS/Glu/P/S. The immortalized human myoblast LHCN-M2 cell line was cultured in proliferation medium: F10 supplemented with 20% FBS, 2-mercaptoethanol 1× (GIBCO), 10^−9 M dexamethasone (Sigma), 10 ng/mL bFGF (Peprotech), and Glu/P/S. All cells were cultured at 37° C. in a 5% CO2 atmosphere.
Cell lines were plated in a 96 well dish (1×10^5 cells/well), and the following day were treated with iP300w or its stereoisomers. ATP assays were performed using CellTiter-Glo® Luminescent Cell Viability Assay (Promega) according to the manufacturer's instructions. Luminescence was analyzed on POLARstar Optima Microplate Reader (BMG Labtech, Offenburg, Germany). […]

[4] = test system: global H3K18 and H3K27 acetylation; assay: Western blot for H3 acetylation markers in NCC-CDS-X1 cells; format: cell-based, human; conditions: NCC-CDS-X1, 18 hours
Protocol: as §1

CNC(=O)Cn1cc(-c2ccc3c(c2)[C@H](F)C[C@]32NC(=O)N(CC(=O)N(Cc3ccc(F)cc3)[C@@H](C)C(F)(F)F)C2=O)cn1 (single isomer, unassigned) [iP300w]
down-regulation of direct CIC-DUX4 targets ETV1, 4, and 5 [1]: Significant down-regulation | time at which inhibition of proliferation is morphologically apparent [2]: 24 hours | effect on CIC-DUX4-induced global H3K18 and H3K27 acetylation [3]: abolished | concentration giving mild suppression of proliferation (LCHN-Myoblast): ≥ 0.3 µM | effect on global H3K18 and H3K27 acetylation [4]: reduces global H3K18 and H3K27 acetylation
